Experimental data taken from US20250230151A1, “COMPOUNDS FOR CANCERS DRIVEN BY BRAF MUTATION” (THE BOARD OF TRUSTEES OF THE UNIVERSITY OF ILLINOIS, priority 2021, published 2025).

What was measured:
A375 cells = test: 72-hour cell viability assay (Alamar Blue), A375; format: cell-based, human; conditions: for IC50: 72-hour incubation, Alamar Blue, V600E BRAF; for Emax: A-375, A375, 72-hour incubation
Method: (§1) Cell Culture and reagents. All cell lines were grown in a 37° C., 5% CO2, humidified environment, in media containing 1% penicillin/streptomycin. Cell culture conditions are as follows: MDCK cells transfected with MDR1 (or ABCB1) were obtained from the Netherlands Cancer Institute (Amsterdam, The Netherlands) and maintained in DMEM with 10% fetal bovine serum (FBS, Gemini). Traditional cell lines A375, CHL-1, B16F10, and U118MG were grown in DMEM with 10% FBS, SK-MEL-28, U87 and T98G in EMEM with 10% FBS, AM-38 in EMEM with 20% HI-FBS (Gibco), HT29 in McCoy's 5A with 10% FBS, HCT116 in RPMI with 10% FBS. Compounds were dissolved in DMSO (1% final concentration, Sigma-Aldrich) for cell culture studies.
(§2) Cell viability assays. Cells were harvested, seeded in a 96-well plate and allowed to adhere overnight. Compound was added to each well in DMSO (1% final concentration). Cells were incubated for 72 hours before viability was assessed by the Alamar Blue Assay. Raptinal ([…]) was used as a dead control.

[1] = Blood-brain barrier penetrance, brain and serum levels after single IV injection; format: in vivo; conditions: CD-1, mouse, 60 min after single 25 mg/kg IV injection, read-out: brain-to-serum ratio
Method: Blood-brain barrier penetrance P-gp in vivo assays. All experimental procedures were reviewed and approved by the University of Illinois Institutional Animal Care and Use Committee (Protocol number: 19191). CD-1 mice were purchased from Charles River and acclimated for 4-7 days before use. Mice were administered elacridar or its vehicle at 2.5 mg/kg via lateral tail vein injection. Thirty-minutes post injection, mice were then treated with compounds at 25 mg/kg intravenously now in the other tail vein. At each time point, mice were sacrificed and blood was collected by lacerating the right auricle with iris scissors. An 18-gauge angiocatheter was inserted through the left ventricle, and all residual circulatory volume was removed by perfusing 0.9% saline solution via an analog peristaltic pump. Brains were harvested from the cranial vault and flash frozen. Blood samples were centrifuged at 13,000 ref for 10 minutes and the supernatant serum was stored at −80° C. until analysis. Brain samples were homogenized in ice-cold methanol and centrifuged first at 2000 ref for three minutes and then 13,000 ref for ten minutes and supernatant and tissue debris were separated and stored at −80° C. The resultant supernatant and serum were analyzed by LC-MS/MS to determine compound concentrations. […] All compounds were administered at 5 mL/kg.

P-gp = target: T1, P-gp (Homo sapiens, UniProt P08183); test: MDR1-MDCK P-gp transwell bidirectional transport assay; format: in vitro ADME; conditions: 10 μM, 90 min; for ER (efflux ratio): MDR1-MDCK; for Papp A→B at 90 min, 10 µM / Papp B→A at 90 min, 10 µM / efflux ratio at 90 min, 10 µM: dog, MDCK-MDR1, MDR1-MDCK; for efflux ratio at 90 min, 10 µM: read-out: ER (efflux ratio) (converted)
T1 construct: host or cells: MDCK (MDR1-MDCK)
Method: A novel compound collection composed of complex and diverse compounds derived from natural products, termed “Complexity-to-Diversity Collection” was employed. […] The CtD compounds were evaluated by the efflux pump and their permeability using the P-gp transwell assay using adapted and optimized known protocols. Compound transport across epithelial cells overexpressing P-gp from basolateral-to-apical and apical-to-basolateral directions were quantified to calculate permeability and efflux ratio.
P-gp transwell bidirectional transport assays. Unless noted otherwise, the transport assay was performed in triplicate in batches of 16 or 24 test compounds, with each batch containing quinidine as a substrate control and propranolol as a non-substrate control. MDR1-MDCK cells were plated at a density of 300,000 cells/cm^2 onto 96-well Falcon™ Multiwell Insert System with 1 µm pore polycarbonate filters with angled-bottom receiver plates (Coming) and were fed with the cell growth medium on day 2.
The donor solution was prepared by adding 1 mM DMSO stocks of compounds to make the final concentration […], and the receiver solution was prepared with equivalent volume of DMSO to make 1% DMSO in final assay chamber volumes.
After 80-96 hours since seeding, the growth media on both sides was aspirated. To the transwell plate (apical side), 50 μL of receiver and donor solutions prepared on a 96-well plate were added, and it was placed on top of a separate angled-bottom 96-well plate (basolateral side) containing 260 μL of receiver and donor solutions.
Following 90 minutes of incubation at 37° C. with shaking at 90 rpm, 20 μL aliquot of samples were taken from both the donor and receiver chambers, and the apical and basolateral sides. Aliquots of 4 test compounds were pooled for each category: apical-donor, apical-receiver, basolateral-donor, basolateral-receiver. To measure CO and mass balance, initial donor samples from both apical and basolateral side were set aside from the assay plate. Acetonitrile twice the volume of pooled samples was added and mixed thoroughly, and precipitated proteins were removed by centrifugation at 20,000 r.c.f for 10 minutes.
To ascertain the MDCK monolayer integrity, the solution on apical side contained 100 µM Lucifer Yellow (Millipore-Sigma). After 90 minutes of compound transport, Lucifer Yellow concentration in the basal well was measured using SpectraMax M3 (Molecular Devices) set to an excitation wavelength of 430 nm and an emission wavelength of 540 nm.
Samples were analyzed with the 5500 QTRAP LC/MS/MS system (AB Sciex) with a 1200 series HPLC system (Agilent Technologies) including a degasser, an autosampler, and a binary pump. The liquid chromatography separation was performed on an Agilent SB-Aq column (4.6×50 mm, 5 μm) (Agilent Technologies) with mobile phase A (0.1% formic acid in water) and mobile phase B (0.1% formic acid in acetonitrile). The flow rate was 0.3 ml min^−1. The linear gradient was optimized for each compound. The autosampler was set at 5° C. The injection volume was 15 μL. Mass spectra were acquired with both positive electrospray ionization at the ion spray voltage of 5,500 V and negative electrospray ionization at the ion spray voltage of −4,500 V. The source temperature was 450° C. The curtain gas, ion source gas 1, and ion source gas 2 were 33, 50 and 65, respectively. Multiple reaction monitoring was used to quantify metabolites.
Efflux data calculations.

HCT116 cells = test: 72-hour cell viability assay (Alamar Blue), HCT116; format: cell-based; conditions: Homo sapiens, HCT-116, WT BRAF, colon, read-out: HCT116 (WT) IC50
Method: as §1, §2

SK-MEL-28 cells = test: 72-hour cell viability assay (Alamar Blue), SK-MEL-28; format: cell-based; conditions: Homo sapiens, SK-MEL-28, V600E BRAF, melanoma
Method: as §1, §2

[2] = test system: MAPK signaling (phospho-MEK1/2, phospho-ERK1/2) in A375 cells; test: Immunoblotting of MEK1/2 and ERK1/2 phosphorylation, A375; format: cell-based, human; conditions: A375, highest concentrations (10 μM), 24 h
Method: Immunoblotting. Cells were lysed using RIPA buffer containing phosphatase (BioVision) and protease inhibitor cocktail (Calbiochem). Protein concentration was determined using the BCA assay (Pierce). Cell lysates containing […] of protein were loaded into each lane of 4% to 20% gradient gels (Bio-Rad) for SDS-PAGE. Proteins were transferred onto PDVF membrane for Western blot analysis. Blots were blocked with BSA for one hour followed by incubation with primary antibody overnight (dilution according to manufacturer's protocols), and then secondary antibody was incubated for one hour. Blots were then imaged with a ChemiDoc Touch (Bio-Rad) after incubation with SuperSignal West Pico Solution (ThermoFischer) following manufacturer's protocols. All antibodies were purchased from Cell Signaling Technology: p-ERK (9101S), ERK (4695S), p-MEK (9121S), MEK (8727S), vinculin (13901S) Rabbit IgG-HRP (7074), […] (5125).

T1 sequence (P08183 whole entry): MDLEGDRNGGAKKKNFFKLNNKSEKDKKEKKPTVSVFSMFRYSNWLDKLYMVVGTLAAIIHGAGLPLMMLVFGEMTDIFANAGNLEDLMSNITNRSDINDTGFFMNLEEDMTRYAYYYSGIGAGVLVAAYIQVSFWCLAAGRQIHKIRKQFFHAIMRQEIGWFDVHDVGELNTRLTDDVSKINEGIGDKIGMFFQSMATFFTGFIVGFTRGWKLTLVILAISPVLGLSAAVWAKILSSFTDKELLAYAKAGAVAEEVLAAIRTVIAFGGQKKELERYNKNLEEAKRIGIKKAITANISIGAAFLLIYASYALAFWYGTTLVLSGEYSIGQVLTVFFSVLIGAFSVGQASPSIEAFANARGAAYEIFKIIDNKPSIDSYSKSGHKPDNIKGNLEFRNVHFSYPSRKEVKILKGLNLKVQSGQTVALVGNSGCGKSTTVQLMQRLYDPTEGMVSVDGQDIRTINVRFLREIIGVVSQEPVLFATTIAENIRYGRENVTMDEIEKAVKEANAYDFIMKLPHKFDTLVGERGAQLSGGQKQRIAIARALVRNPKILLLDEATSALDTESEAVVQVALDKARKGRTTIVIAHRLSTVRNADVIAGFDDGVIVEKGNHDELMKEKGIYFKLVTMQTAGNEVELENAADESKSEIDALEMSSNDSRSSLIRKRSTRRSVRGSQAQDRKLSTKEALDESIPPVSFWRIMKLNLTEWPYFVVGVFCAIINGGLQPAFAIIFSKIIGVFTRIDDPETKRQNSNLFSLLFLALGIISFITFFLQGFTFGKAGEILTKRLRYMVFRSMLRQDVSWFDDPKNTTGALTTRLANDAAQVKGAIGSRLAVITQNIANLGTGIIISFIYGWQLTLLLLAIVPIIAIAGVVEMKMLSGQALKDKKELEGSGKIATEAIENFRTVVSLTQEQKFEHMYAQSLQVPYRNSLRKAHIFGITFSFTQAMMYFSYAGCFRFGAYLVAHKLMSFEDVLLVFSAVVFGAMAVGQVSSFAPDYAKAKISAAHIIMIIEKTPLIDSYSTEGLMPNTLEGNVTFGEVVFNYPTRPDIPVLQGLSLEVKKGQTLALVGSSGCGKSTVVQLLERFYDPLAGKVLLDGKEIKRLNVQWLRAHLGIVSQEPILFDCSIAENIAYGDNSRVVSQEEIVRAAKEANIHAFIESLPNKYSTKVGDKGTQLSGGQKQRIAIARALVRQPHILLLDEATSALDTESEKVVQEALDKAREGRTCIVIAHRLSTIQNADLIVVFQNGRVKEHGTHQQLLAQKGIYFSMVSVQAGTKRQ

Which results are given for COC(=O)N[C@@H](C)CNc1nccc(-c2cn(C(C)C)nc2-c2cc(Cl)cc(NS(C)(=O)=O)c2F)n1 [Encorafenib, reference compound]?
IC50 (A375 cells; Homo sapiens, A-375, 72 h): 5.17 ± 0.412 nM; Kp at 60 min [1]: 0.0014 to 0.0069; ER (efflux ratio) (P-gp): 21.8; Papp A→B at 90 min, 10 µM (P-gp): 1.32 ± 0.602 ×10⁻⁶ cm/s; Papp B→A at 90 min, 10 µM (P-gp): 14.7 ± 1.8 ×10⁻⁶ cm/s

What does the source list for CCCS(=O)(=O)Nc1cc(Cl)cc(-c2nc(C(C)(C)C)sc2-c2ccnc(NCC[C@@H](C)CC(=O)O)n2)c1F [8-43, (R)-5-((4-(2-(tert-butyl)-4-(5-chloro-2-fluoro-3-(propylsulfonamido)phenyl)thiazol-5-yl)pyrimidin-2-yl)amino)-3-methylpentanoic acid]?
IC50 (A375 cells; Homo sapiens, A-375, 72 h): 38.2 ± 3.29 nM; IC50 (HCT116 cells): 5130 ± 382 nM; IC50 (SK-MEL-28 cells): 51.1 ± 1.35 nM

For CCCS(=O)(=O)Nc1cc(Cl)cc(-c2nc(C(C)(C)C)sc2-c2ccnc(NCC(C)C(F)C(=O)O)n2)c1F (stereo not shown) [8-41, 4-((4-(2-(tert-butyl)-4-(5-chloro-2-fluoro-3-(propylsulfonamido)phenyl)thiazol-5-yl)pyrimidin-2-yl)amino)-2-fluoro-3-methylbutanoic acid], which IC50 (A375 cells; Homo sapiens, A-375, 72 h) is on record?
Its IC50 is 301 ± 39.9 nM.

What about the IC50 (HCT116 cells) of the same compound?
The IC50 was greater than 1000 nM.

What about the IC50 (SK-MEL-28 cells) of the same compound?
The IC50 was 246 ± 8.73 nM.

With CC(C)(C)c1nc(-c2cccc(NS(=O)(=O)c3c(F)cccc3F)c2F)c(-c2ccnc(NCCCC(=O)O)n2)s1 [6-86, 4-((4-(2-(tert-butyl)-4-(3-((2,6-difluorophenyl)sulfonamido)-2-fluorophenyl)thiazol-5-yl)pyrimidin-2-yl)amino)butanoic acid] as the compound, how does the IC50 (A375 cells) read?
The IC50 was 628 ± 105 nM.

And the IC50 (A375 cells; Homo sapiens, A-375, 72 h)?
Its IC50 is 628 ± 105 nM.

What about the Emax (A375 cells; Homo sapiens) of the same compound?
The Emax was 65%.

And the “ER (efflux ratio)” value (P-gp)?
The value was 0.607 ± 0.16.

And the Papp A→B at 90 min, 10 µM (P-gp)?
The Papp A→B at 90 min, 10 µM was 0.844 ± 0.214 ×10⁻⁶ cm/s.

And the Papp B→A at 90 min, 10 µM (P-gp)?
Its Papp B→A at 90 min, 10 µM is 0.445 ± 0.04 ×10⁻⁶ cm/s.

What about the efflux ratio at 90 min, 10 µM (P-gp) of the same compound?
Its efflux ratio at 90 min, 10 µM is 0.61 ± 0.16.

For CC(C)(C)c1nc(-c2c(F)ccc(NS(=O)(=O)c3cc(C(F)(F)F)ccc3C(F)(F)F)c2F)c(-c2ccnc(N)n2)s1 [6-145, N-(3-(5-(2-aminopyrimidin-4-yl)-2-(tert-butyl)thiazol-4-yl)-2,4-difluorophenyl)-2,5-bis(trifluoromethyl)benzenesulfonamide], which IC50 (A375 cells; Homo sapiens, A-375, 72 h) is on record?
Its IC50 is greater than 3000 nM.

What about the Papp A→B at 90 min, 10 µM (P-gp) of the same compound?
Its Papp A→B at 90 min, 10 µM is 0.94 ± 0.05 ×10⁻⁶ cm/s.

What about the Papp B→A at 90 min, 10 µM (P-gp) of the same compound?
Its Papp B→A at 90 min, 10 µM is 5.66 ± 0.19 ×10⁻⁶ cm/s.

And the efflux ratio at 90 min, 10 µM (P-gp)?
The efflux ratio at 90 min, 10 µM was 6.05 ± 0.5.

With CC(C)(C)c1nc(-c2cccc(NS(=O)(=O)c3cc(C(F)(F)F)ccc3C(F)(F)F)c2F)c(-c2ccnc(NCCCCC(=O)O)n2)s1 [6-173, 5-((4-(4-(3-((2,5-bis(trifluoromethyl)phenyl)sulfonamido)-2-fluorophenyl)-2-(tert-butyl)thiazol-5-yl)pyrimidin-2-yl)amino)pentanoic acid] as the compound, how does the IC50 (A375 cells; Homo sapiens, A-375, 72 h) read?
Its IC50 is greater than 50000 nM.

And the Papp B→A at 90 min, 10 µM (P-gp)?
The Papp B→A at 90 min, 10 µM was 0.46 ± 0.086 ×10⁻⁶ cm/s.

For CC(C)(C)c1nc(-c2cccc(NS(=O)(=O)c3c(F)cccc3F)c2F)c(-c2ccnc(CCCCC(=O)O)n2)s1 [6-131, 5-(4-(2-(tert-butyl)-4-(3-((2,6-difluorophenyl)sulfonamido)-2-fluorophenyl)thiazol-5-yl)pyrimidin-2-yl)pentanoic acid], which IC50 (A375 cells; Homo sapiens, A-375, 72 h) is on record?
The IC50 was 1580 ± 458 nM.

And the Emax (A375 cells; Homo sapiens)?
The Emax was 60%.

What about the Papp A→B at 90 min, 10 µM (P-gp) of the same compound?
The Papp A→B at 90 min, 10 µM was 0.449 ± 0.008 ×10⁻⁶ cm/s.

And the Papp B→A at 90 min, 10 µM (P-gp)?
Its Papp B→A at 90 min, 10 µM is 1.03 ± 0.166 ×10⁻⁶ cm/s.

What about the efflux ratio at 90 min, 10 µM (P-gp) of the same compound?
Its efflux ratio at 90 min, 10 µM is 1.93 ± 0.08.

With CCCS(=O)(=O)Nc1cc(Cl)cc(-c2nc(C(C)(C)C)sc2-c2ccnc(NCC(C)CC(=O)O)n2)c1F (stereo not shown) [6-265, 4-((4-(2-(tert-butyl)-4-(5-chloro-2-fluoro-3-(propylsulfonamido)phenyl)thiazol-5-yl)pyrimidin-2-yl)amino)-3-methylbutanoic acid] as the compound, how does the IC50 (A375 cells; Homo sapiens, A-375, 72 h) read?
Its IC50 is 113 ± 10.7 nM.

And the IC50 (HCT116 cells)?
The IC50 was 8840 nM.

And the IC50 (SK-MEL-28 cells)?
The IC50 was 124 ± 4.86 nM.

With CCCS(=O)(=O)Nc1ccc(F)c(C(=O)c2c[nH]c3ncc(Cl)cc23)c1F [PLX4720, reference compound] as the compound, how does the Kp at 60 min [1] read?
The Kp at 60 min was 0.0014 to 0.0069.

What about the “inhibition of ERK1/2 phosphorylation after 24 h” value [2] of the same compound?
The value was “diminished inhibition”.
